{"source": "patent US20250388571A1", "about": "“AMP-ACTIVATED PROTEIN KINASE MODULATOR COMPOUNDS AND USES THEREOF” (Biolexis Therapeutics, Inc., priority 2024, published 2025)", "type_in_all_cases": "cell-based", "key": {"[1]": {"system": "human cardiomyocyte cells (HCM)", "assay": "Glucose uptake assay, human cardiomyocyte cells", "conditions": "donor not stated", "description": "FIGS. 17-19 show results for glucose update assays in human cardiomyocyte cells (“HCM”-healthy donor) (Promocell, cat. no. C-12810) when treated with compound I-11 (FIG. 17), compound I-7 (FIG. 18), and PF-06409577 (FIG. 19). After recovered HCM cells for 4 days, cells were starved for 3 hours in high glucose DMEM without FBS, treated with the components noted above in DMEM without FBS/glucose for 1 hour, and glucose uptake was detected using a glucose uptake kit (Promega). […] The bars show (from left to right) concentrations of 100 μM, 33 μM, 11 μM, 3.7 μM, 1.23 μM, 0.41 μM, 0.14 μM, 0.045 μM, 0.015 μM, 0.005 μM, 0 μM, and insulin.\nFIGS. 20-22 show results for glucose update assays in human cardiomyocyte cells (“HCM”-diabetic donor) (Promocell, cat. no. C-12810) when treated with compound I-11 (FIG. 20), compound I-7 (FIG. 21), and PF-06409577 (FIG. 22). After recovered HCM cells for 4 days, cells were starved for 3 hours in high glucose DMEM without FBS, treated with the components noted above in DMEM without FBS/glucose for 1 hour, and glucose uptake was detected using a glucose uptake kit (Promega). […] The bars show (from left to right) concentrations of 100 μM, 33 μM, 11 μM, 3.7 μM, 1.23 μM, 0.41 μM, 0.14 μM, 0.045 μM, 0.015 μM, 0.005 μM, 0 μM, and insulin.\n(§1) Human skeletal myoblasts were obtained (Thermofisher; BYU) and cultured in DMEM/F12 medium with 10% FBS. For differentiation, 2% horse serum low glucose DMEM medium was employed for 72 hours. Human cardiomyocytes cells (HCM cells; Promocell) were cultured in myocyte growth medium (Promocell). Human preadipocyte HWP-c cells (Promocell) were obtained from upper arm of diabetic II donor. Human preadipocyte HWP-c cells (Promocell) were obtained from abdomen of diabetic II donor. For differentiating human preadipocytes, cells were cultured in preadipocyte growth medium to total confluency stage. The growth medium was replaced with preadipocyte differentiation medium for 72 hours, then changed to PromoCell adipocyte nutrition medium to complete the differentiation process. THLE-2 cells were cultured in BEGM from Lonza/Clonetics Corporation, Walkersville, MD 21793 (BEGM Bullet Kit; CC3170). HepG2, L6 and C2Cl2 cells were cultured in EMEM medium.\n(§2) After differentiation myoblasts, preadipocyte cells were starved by removing the medium and adding 100 μL DMEM without serum. The medium was then replaced with 100 μL DMEM±1 μM insulin at indicated concentration of representative compounds without serum or glucose. The cells were then incubated for 1 hour at 37° C. in 5% CO2. The cells were then removed from the medium and 50 μL of 0.1 mM 2DG in PBS was added. Cells were incubated for 30 minutes at 25° C. 25 μL of Stop Buffer was added and samples were mixed. 25 μL of Neutralization Buffer was then added and mixed. 100 μL of 2DG6P Detection Reagent was then added and mixed. Samples were then incubated for 1 hour at 25° C. Luminescence was then recorded with 0.3-1 second integration on a luminometer."}, "[2]": {"system": "AMPK signal pathway in human cardiac myocytes (HCM)", "assay": "Western blot assay, human cardiomyocytes"}, "[3]": {"system": "human skeletal muscle cells (HSKM cells)", "assay": "Glucose uptake assay, human skeletal muscle cells", "conditions": "100 μM to 0.005 μM, 1 hour", "description": "FIGS. 1-4 show results for cells treated with differing doses of representative compounds of Structure (I) (i.e., compound I-11 in FIG. 1 and compound I-7 in FIG. 2) as well reference compounds (i.e., PF-06409577 in FIG. 3 and MK-8722 in FIG. 4). […] Cells were starved for 3 hours in high glucose DMEM without FBS, then treated with indicated compounds in DMEM without FBS/glucose for 1 hour, and glucose uptake was detected using an uptake glucose kit (Promega). The bars show (from left to right) concentrations of 100 μM, 33 μM, 11 μM, 3.7 μM, 1.23 μM, 0.41 μM, 0.14 μM, 0.045 μM, 0.015 μM, 0.005 μM, 0 μM, and insulin.\nas §1, §2"}}, "data": [{"smiles": "O[C@@H]1CO[C@H]2[C@@H]1OC[C@H]2Oc1nc2nc(-c3ccc(-c4ccccc4)cc3)c(Cl)cc2[nH]1", "note": "[MK-8722, reference compound]", "values": [{"measurement": "glucose uptake", "setting": "[1]", "result": "could increase glucose uptake"}, {"measurement": "p-ACC/p-AMPK and AMPKα2β2γ3 expression", "setting": "[2]", "result": "may be able to increase"}, {"measurement": "dose dependence of glucose uptake (printed: activation of insulin / AMPK activation)", "setting": "[3]", "result": "highly variable"}]}]}
